Measured values from patent US4283408A, “Guanidinothiazole compounds, process for preparation and gastric inhibiting compositions containing them” (Yamanouchi Pharmaceutical Co., Ltd., priority 1979, dated 1981).

Legend:
[1] = system: Gastric acid secretion; test: Gastric acid secretion in anesthetized dogs (histamine-induced); assay type: in vivo, Mongrel dogs; conditions: Canis lupus familiaris, iv, read-out: (A) Gastric secretion ED50
Description: (i) Gastric acid secretion in anesthetized dogs: Mongrel dogs weighing 8 to 15 Kg were deprived of food for 24 hr and anesthetized intravenously with pentobarbital (30 mg/Kg). […] The gastric juice was collected from the gastric cannula by gravity drainage every 15 min. Test compounds were given intravenously after gastric secretion induced by a continuous intravenous infusion of histamine (160 μg/Kg-hr) reached a steady state.

[2] = Acute toxicity in mice; conditions: mouse, in vivo, iv; male ICR mice; i.v.; 7 days observation; up and down method; base; read-out: (C) LD50 in mice
Description: (iii) Acute toxicity in mice
Drugs were injected intravenously in male ICR mice weighing about 35 g at a rate of 0.1 ml/10 sec and the animals were kept under observation for 7 days. LD50 values were determined by up and down method using 10 animals. The data are shown in Table I, under column entitled (C).

[3] = system: Gastric acid secretion; test: Gastric acid secretion in pylorus-ligated rats; assay type: in vivo, Male Wister rats; conditions: Rattus norvegicus, read-out: (B) Pylorus-ligated rats ED50
Description: (ii) Gastric acid secretion in pylorus-ligated rats
Male Wister rats weighing about 200 g were deprived of food for 24 hr but allowed free access to water prior to the experiments in individual cages. […] Test compounds were intraduodenally given immediately after the ligation of pylorus. The animals were sacrificed 4 hr after drug administration and gastric contents were collected. […] The percent inhibition of gastric secretion by each dose of drugs was calculated from the acid outputs of control and of treated groups. ED50 values were determined by the probit method.

[4] = system: H2 -receptor; conditions: isolated guinea pig atrium; effects mediated by the H2 -receptor; Ash and Schild, Black et al.; cited from earlier work
[5] = anesthetized dogs, i.v., histamine infusion 160 μg/Kg-hr, dose producing 50% inhibition of the acid output, base
[6] = pylorus-ligated rats, intraduodenal, 4 hr, probit method, base

`CN/C(=N/CCSCc1nc[nH]c1C)NC#N` [Compound A, Ncyano-Nmethyl-N{2[(4methyl-5-imidazolyl)methylthio]ethyl}guanidine] showed an ED50 [1] of 0.333 ± 0.042 mg/kg, an LD50 at 168 h [2] of 152 mg/kg and an ED50 ([3]; 4 h) of 42.6 mg/kg.
With `N#CN=C(N)NCCSCc1csc(NC(=N)N)n1` [Compound B, 2guanidino-4-[2(2-cyanoguanidino)ethylthiomethyl]thiazole] the ED50 [1, 5] was 0.0352 ± 0.0022 mg/kg, the LD50 at 168 h [2] was 94.6 mg/kg and the ED50 [3, 6] was 49.3 mg/kg.
In the case of `NC(N)=Nc1nc(CSCCC(N)=NS(N)(=O)=O)cs1` [Example 1, N-sulfamoyl-3-[(2-guanidinothiazol-4-yl)methylthio]propionamidine], the ED50 [1, 5] is reported as 0.0087 ± 0.0005 mg/kg, the LD50 at 168 h [2] is reported as 244 mg/kg and the ED50 [3, 6] is reported as 0.87 mg/kg.
`CS(=O)(=O)NC(=N)CCSCc1csc(NC(=N)N)n1` [Example 2, N-methanesulfonyl-3-[(2-guanidinothiazol-4-yl)-methylthio]propionamidine] gave an ED50 [1, 5] of 0.0191 ± 0.0026 mg/kg, an LD50 at 168 h [2] of 152 mg/kg and an ED50 [3, 6] of 8.9 mg/kg.
For `COc1ccc(CN(CCN(C)C)c2ccccn2)cc1` [mepyramine], the “inhibition of histamine effects on gastric acid secretion and heart rate” value [4] is given as “not inhibited”.
In the case of `C/N=C(\S)NCCSCc1[nH]cnc1C` [metiamide], the “inhibition of histamine effects on gastric acid secretion and heart rate” value [4] is listed as “antagonized”.
